These results are taken from US20060240028A1, “Anti-nls substances and uses thereof in nuclear import inhibition” (priority 2002, published 2006).

Assay [1] concerns nuclear import of Vpr-GST fusion protein. Kind of assay: Nuclear import of FL-Vpr-GST in digitonin permeabilized HeLa cells. It counts as cell-based. The note with it: 5-fold excess unlabeled Vpr-GST. As for the experimental part:
(§1) Nuclear import of rhodamine-labeled BSA-NLS conjugates (FL-BSA-NLS) was performed as described before [Adam (1992) id ibid.; Broder (1997) id ibid.]. Amounts of FL-BSA-NLS substrate for FL-BSA SV40 large T-Ag NLS was 3-5 μg/system and for the FL-BSA-VprN 25 μg/system. Controls included: 1 mg/ml Wheat Germ Agglutinin (WGA), 4 mM of GTP-γ-S, or 1000 units/ml of Hexokinase and 10 mM Glucose. Samples were observed and photographed using confocal fluorescent microscopy.
The Vpr-GST fusion protein eluted from the Glutathione-Agarose resin was concentrated by VivaScience concentrators (MWCO 30,000) to a final concentration of 2.5-3.0 mg/ml, dialyzed for 2-3 hours against 1×PBS at 4° C. and labeled with rhodamine-maleimide Molecular Probes) according to manufacturer's instructions. Following 2 hours of incubation at room temperature with rotation, the labeled Vpr-GST fusion protein (FL-Vpr-GST) was purified using Sephadex G-25 fine (Pharmacia). The FL-Vpr-GST was then concentrated again using VivaScience concentrators (MWCO 30,000) and stored at −20° C.

The test system of assay [2] is VprN-mediated nuclear import. Kind of assay: Nuclear import of FL-BSA-VprN in permeabilized HeLa cells, fluorescence microscopy. The class given is cell-based. As to conditions: 1 mg/ml WGA, 4 mM GTP-γ-S, Table 2 (not given). As for the experimental part: as §1
In assay [3] the test system is interaction between anti-VprN scFv antibodies and surface-bound BSA-VprN conjugate. Kind of assay: Competition ELISA: inhibition of anti-VprN scFv binding to surface-bound BSA-VprN by soluble ligands. Also on record: species or system HIV-1. The note with it: for inhibition of binding of the three antibodies to VprN-BSA by soluble ligand: Ab1, Ab2, Ab3. As for the experimental part:
(§2) The various ELISA assays used in the present work were carried out as follows: MaxiSorb plates (NUNC) were covered overnight with 25-100 μg/ml of the antigen (in Carbonate Buffer 0.05M Na2CO3/0.05M NaHCOs, pH9.6) at 4° C. On the next day, the plates were washed three times with 1×PBS and blocked with 2% BSA in 1×PBS (for antibodies) or 2% Skim Milk (DIFCO) in 1×PBS (for all other molecules) for 2 hours at 37° C. The plates were then washed three times with 1×PBS, and the appropriate ligand (in blocking solution) was added and incubated for 2 hours at 37° C. The plates were then washed three times with 1×PBS and the following detecting agents were added for detecting the antigen-ligand complexes: Avidin-POD (Roche Diagnostics), for biotin labeled molecules (1 unit/ml); anti-M13 monoclonal antibody (Amersham Pharmacia, 1:5000), for the bound phages; and a mix of mouse anti-myc antibody (Sigma, 1:1000) with anti-mouse-HRP antibody (Sigma, 1:2000) for the scFv antibodies. Each detecting agent was dissolved in the appropriate blocking solution (see above). Following incubation for 1 hour at 37° C. with the detecting agent, the plates were washed three times with 1×PBS and the appropriate substrate was added, according to manufacturer instructions.
(An ELISA detects its analyte on a solid surface through an enzyme-linked reagent.)

The subject of assay [4] is binding of anti-VprN scFv antibodies to Vpr-GST. Kind of assay: Competition ELISA: inhibition of anti-VprN scFv binding to surface-bound Vpr-GST. More on the design: species or system HIV-1. As to conditions: for inhibition of binding of all three antibodies to Vpr-GST by added ligand: Ab1, Ab2, Ab3. As for the experimental part:
as §2

Assay [5] has as its system VprN-BSA conjugate (N-terminal domain of Vpr, amino acids 17-34). In words: ELISA binding to surface-bound BSA-VprN conjugate. Also on record: species or system HIV-1. As to conditions: FIG. 2. As for the experimental part:
Panning of the human scFv antibody phage display library [Harrison, J. L. et al. (1996) Methods in Enzymology 267, 83-109; Nissim, A. et al. (1994) EMBO J 13, 692-698] was conducted as follows. Two immunotubes (5 ml, NUNC) were incubated in parallel, with rotation at room temperature overnight, one containing the BSA-VprN conjugate and the other one containing only BSA, both in 0.1 mg/ml carbonate buffer (0.05M Na2CO3/0.05M NaHCO3, pH9.6). Following incubation, the tube with the surface attached BSA-VprN conjugates was washed three times with 1× PBS and then incubated for two hours at 37° C. with 2% (w/v) skim milk (DIFCO) in 1×PBS (2% MPBS). After three washes with 1× PBS, the scFv phage library (4 ml in 1% MPBS) was added and the tube containing the phage particles was incubated for 30 min with, and for 1.5 hours without rotation, at room temperature. The supernatant was then removed and the tube was washed ten times first with 1×PBS containing 0.05% Tween 20 and then with 1×PBS only. For elution of bound phages, 1 ml of 0.1M triethylamine was added, incubated for 10 min at room temperature with rotation, and the triethylamine solution containing the eluted phages collected and mixed with 0.5 ml of 1M Tris-HCl, pH7.4. […]

Assay [6] has as its system Tat-ARM mediated nuclear import. In words: Nuclear import of FL-BSA-Tat conjugates in HeLa cells. The class given is cell-based. The note with it: WGA 1 mg/ml, peptide/FL-BSA-Tat 20/1.
Assay [7] concerns the target anti-VprN scFv antibody Ab1. Kind of assay: competition ELISA: free VprN peptide against Ab1 binding to coated BSA-VprN.
The target in assay [8] is T1, BSA-VprN conjugate (HIV-1, rhodamine- or biotin-labelled in the nuclear import assays; cysteine added at the N-terminus; peptide chemically conjugated to BSA).
T1 construct: The peptide is printed with superscripts 16 and 34, the text calls it residues 17-34; also called VprN-BSA conjugate; VprN-BSA
Kind of assay: peptide ELISA on coated BSA-NLS conjugates (FIGS. 2A and 2B).
Description: (§3) The various ELISA assays used in the present work were carried out as follows: MaxiSorb plates (NUNC) were covered overnight with 25-100 μg/ml of the antigen (in Carbonate Buffer 0.05M Na₂CO₃/0.05M NaHCOs, pH9.6) at 4° C. On the next day, the plates were washed three times with 1×PBS and blocked with 2% BSA in 1×PBS (for antibodies) or 2% Skim Milk (DIFCO) in 1×PBS (for all other molecules) for 2 hours at 37° C. The plates were then washed three times with 1×PBS, and the appropriate ligand (in blocking solution) was added and incubated for 2 hours at 37° C. The plates were then washed three times with 1×PBS and the following detecting agents were added for detecting the antigen-ligand complexes: Avidin-POD (Roche Diagnostics), for biotin labeled molecules (1 unit/ml); anti-M13 monoclonal antibody (Amersham Pharmacia, 1:5000), for the bound phages; and a mix of mouse anti-myc antibody (Sigma, 1:1000) with anti-mouse-HRP antibody (Sigma, 1:2000) for the scFv antibodies. Each detecting agent was dissolved in the appropriate blocking solution (see above). Following incubation for 1 hour at 37° C. with the detecting agent, the plates were washed three times with 1×PBS and the appropriate substrate was added, according to manufacturer instructions.

Assay [9] addresses T2, BSA-SV40 NLS conjugate (SV40, rhodamine- or biotin-labelled in the nuclear import assays; cysteine added at the C-terminus; peptide chemically conjugated to BSA).
T2 construct: also called BSA-SV40 large T-antigen NLS; SV40 NLS-BSA conjugate
In words: peptide ELISA on coated BSA-NLS conjugates (FIG. 2A).
Description: as §3

No end group written: not given here.

In the case of `Nc1nc2c(ncn2[C@@H]2O[C@H](COP(=O)(O)OP(=O)(O)OP(O)(O)=S)[C@@H](O)[C@H]2O)c(=O)[nH]1` [GTP-γ-S], the “inhibition of nuclear import of Vpr-GST by control agents” value in assay [1] was “partially inhibited”. Further, the “inhibition of nuclear import of BSA-VprN conjugate by control agents” value in assay [2] is reported as “partially inhibited”.
As to “SV40 NLS peptide: PKKKRKVC (SEQ. ID. NO.7), the SV40 large T-antigen NLS (SV40-NLS with extra C)”, the “inhibition of binding of the three antibodies to VprN-BSA by soluble ligand” value (“inhibition of binding … by soluble ligand” for short) in assay [3] is recorded as “No or low inhibition”.
For the molecule VprN mutant (CNEATLELLPELKNPAVRHF), the “inhibition of binding … by soluble ligand” value in [3] was “No or low inhibition”. Besides, in assay [4], the “inhibition of binding of all three antibodies to Vpr-GST by added ligand” value was “no or little inhibition”.
Regarding “VprN-BSA: BSA molecule bearing about 3-4 covalently attached VprN peptides”, the “inhibition of binding … by soluble ligand” value in assay [3] is “inhibited”. Further, the “concentration of soluble ligand inhibiting Ab1 binding to its antigen by 90%” value in [3] (Ab1, surface-bound VprN-BSA) is reported as “about 5 μM”. Moreover, in assay [4], the “fold lower concentration than VprN peptide required to block antibody binding to Vpr-GST” value is listed as “about ten” and the “inhibition of binding of all three antibodies to Vpr-GST by added ligand” value is “strongly inhibited”.
As to “peptide a: synthetic peptide of the CDR3 random insert of phage A, ISSD (SEQ. ID. NO. 4) (AFMKSGKRFIH; CDR3 random insert sequence of Ab2)”, the “binding of anti-VprN peptide to VprN-BSA conjugate” value in assay [5] is “failed to recognize”.
Take wheat germ agglutinin [WGA]: the “inhibition of nuclear import of FL-BSA Tat ARM conjugates by control agents” value in [6] is reported as “inhibited”. The “inhibition of nuclear import of Vpr-GST by control agents” value in assay [1] is listed as “inhibited”. Also, the “inhibition of nuclear import of BSA-VprN conjugate by control agents” value in assay [2] is recorded as “inhibited”.
Take CNEWTLELLEELKNEAVRHF (cysteine added at the N-terminus) [VprN peptide (free synthetic peptide)]: in [7], the concentration giving 90% inhibition is over 15 µM.
As to ISSD (not fully specified) [synthetic anti-VprN peptide a (CDR3 random insert of phage A)], the binding result in assay [8] and in [9] was “no binding” in each case.
As to HFHYKGKLQTF (not fully specified) [synthetic anti-VprN peptide c (CDR3 random insert of phage C)], the binding result in [8] and in assay [9] was “no binding” in each case.
